Test results from ChEMBL document CHEMBL5209573, “Fluo-8 based assay for SLC24A2 using HEK293 SLC24A2 JumpIn OE cells” (2022).

Target: Sodium/potassium/calcium exchanger 2 (Homo sapiens, UniProt Q9UI40)
Experiment: Substrate uptake by the Sodium/Potassium/Calcium Exchanger 2 (NCKX2, SLC24A2) as assessed by Screen Questtrade mark Fluo-8 NW calcium assay kit in HEK-293 JumpIN-SLC24A2 cells (PubChem AID: 1794815)
Type: functional, cell-based, HEK293

Sodium/potassium/calcium exchanger 2, sequence (Q9UI40 whole entry): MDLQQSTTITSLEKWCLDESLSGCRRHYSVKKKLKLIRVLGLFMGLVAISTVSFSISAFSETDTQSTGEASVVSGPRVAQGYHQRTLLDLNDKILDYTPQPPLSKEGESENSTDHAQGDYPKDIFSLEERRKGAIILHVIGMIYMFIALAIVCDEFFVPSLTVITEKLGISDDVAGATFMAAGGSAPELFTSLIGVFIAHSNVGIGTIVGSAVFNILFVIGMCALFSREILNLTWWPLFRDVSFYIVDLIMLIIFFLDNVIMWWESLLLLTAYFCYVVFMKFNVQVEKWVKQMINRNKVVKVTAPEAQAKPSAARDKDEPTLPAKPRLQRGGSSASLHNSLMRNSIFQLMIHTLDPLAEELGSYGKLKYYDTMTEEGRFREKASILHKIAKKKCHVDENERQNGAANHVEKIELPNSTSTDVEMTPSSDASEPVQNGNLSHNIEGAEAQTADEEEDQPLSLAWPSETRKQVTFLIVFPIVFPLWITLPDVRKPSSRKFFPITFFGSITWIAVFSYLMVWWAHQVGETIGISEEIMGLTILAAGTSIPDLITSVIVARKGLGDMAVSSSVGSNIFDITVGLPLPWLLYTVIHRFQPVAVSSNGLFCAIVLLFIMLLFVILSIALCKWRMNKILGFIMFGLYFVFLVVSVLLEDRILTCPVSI

EC50: 280 mM
SMILES: [Cl-].[K+] [POTASSIUM CHLORIDE]
